# Assay results as given in US20160000782A1, “PHARMACEUTICAL COMPOSITION CONTAINING ANTIBACTERIAL AGENT” (priority 2013, published 2016).
# Test system: Archaea (extreme halophile) infection causing dementia
# Assay: Treatment of patients with progressive dementia of unknown etiology (clinical course, MRI)
# Type: in vivo, human
# Description: The present inventors conducted studies by targeting 4 subjects with progressive dementia of unknown etiology at the Kagoshima University Medical and Dental Hospital. This study took place after the informed consent of the patients involved had been obtained. Also, this study was carried out with the approval of the ethical review committee of Kagoshima University.
# Dementia was evaluated using the Revised Hasegawa Dementia Scale (HDS-R), which is […] that used for the mini-mental status examination (MMSE).
structure (smiles),measurement,setting,value
CO/N=C(\C(=O)N[C@@H]1C(=O)N2C(C(=O)O)=C(CSc3nc(=O)c(=O)[nH]n3C)CS[C@H]12)c1csc(N)n1 [ceftriaxone],symptoms,"Patient 1, ceftriaxone and methylprednisolone administered together, 2 weeks after the initial administration",improved slightly
same,symptoms thereafter,"Patient 1, ceftriaxone and methylprednisolone administered together, later course, enlarged lesion in base of temporal lobe on brain MRI",tended to progress
same,improvement,"Patient 3, ceftriaxone 4 g/day intravenous for 2 weeks",no improvement was observed
